Drawing on BindingDB's records for patent US20230271937 (Nuevolution, 2023), this text covers EC50 for 1 compound.

The experiment has as its target T1, Isoform 2 of Nuclear receptor ROR-gamma (RORgT) (Homo sapiens, UniProt P51449).
T1 sequence (P51449 whole entry): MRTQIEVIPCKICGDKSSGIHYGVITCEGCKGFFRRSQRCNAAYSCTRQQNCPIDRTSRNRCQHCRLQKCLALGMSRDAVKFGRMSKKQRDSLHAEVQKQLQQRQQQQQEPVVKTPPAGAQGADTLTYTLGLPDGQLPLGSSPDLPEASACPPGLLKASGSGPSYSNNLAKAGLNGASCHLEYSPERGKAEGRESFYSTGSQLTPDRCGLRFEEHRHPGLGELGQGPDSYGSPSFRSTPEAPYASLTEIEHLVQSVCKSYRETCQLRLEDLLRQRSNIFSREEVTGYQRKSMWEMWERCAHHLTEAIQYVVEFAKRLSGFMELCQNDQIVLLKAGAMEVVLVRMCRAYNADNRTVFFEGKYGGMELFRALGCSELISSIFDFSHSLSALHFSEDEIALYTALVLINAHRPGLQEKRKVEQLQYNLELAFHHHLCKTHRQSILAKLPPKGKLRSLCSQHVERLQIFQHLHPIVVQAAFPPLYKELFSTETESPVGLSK
The experiment in a line: RORgamma Reporter Assay (Gal4). As to the method:
The HEK293 cell line is co-transfected transiently with two plasmids, one with the RORγ ligand-binding domain fused to galactose-responsive transcription factor (Gal4), and the other with the luciferase reporter gene and Gal binding sites (UAS). This construction allows to determine the RORγ activity in a cellular system through the measurement of luminescence. A suspension of RORγ reporter cells was dispensed into plates and cultured 2 h at 37° C. and 5% CO2. Media formulation consisted in DMEM/F-12 medium (Gibco) supplemented with 10% heat inactivated FBS (Sigma-Aldrich), non-essential aminoacids (Sigma-Aldrich), 2 mM Glutamax (Gibco) and 100 U/mL penicillin (Sigma-Aldrich). Dose-response curves with compounds were prepared in 100% DMSO and further diluted 100-fold in culture medium. […] The following formula was used: activity=100*[1−[x test compound/average vehicle] where the theoretical minimum reduction (0% reduction).

What is called EC50 is the concentration needed to bring the measured effect to its halfway point. With `CN(Cc1cccc(C#N)c1)c1ncnc(NC[C@H]2CCN(CC(N)=O)C[C@@H]2O)c1F` [US20230271937, Example F2-08], the EC50 came out at 700 nM.
